Reference: US8426408B2, “Pyrimidine inhibitors of kinases” (AbbVie Inc., priority 2009, dated 2013)
pKi: −log10 of the molar value.

Experiments:
[1] = target: T1, Aurora B (Homo sapiens, UniProt Q96GD4); experiment: Aurora B enzyme inhibition (time-resolved fluorescence, histone H3 peptide); format: biochemical; conditions: 1 mM ATP
T1 construct: Active Aurora B enzyme (recombinant residues 1-344)
Outline: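 Recombinant Aurora B (residues 1-344) with GST-INCENP phosphorylated biotinylated histone H3 (1-21) peptide at 1 mM ATP in HEPES pH 7.4 with MgCl2, orthovanadate and Triton X-100 for 1 h. After EDTA stop, the phosphopeptide was detected by TR-FRET (Eu-cryptate anti-phospho-H3 / SA-APC, 665/615 nm ratio). IC50 from an exponential fit.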

[2] = target: T2, Aurora A (Homo sapiens, UniProt O14965); experiment: Aurora A enzyme inhibition (time-resolved fluorescence, STK substrate-2); format: biochemical; conditions: 1 mM ATP
T2 sequence (O14965 1-403): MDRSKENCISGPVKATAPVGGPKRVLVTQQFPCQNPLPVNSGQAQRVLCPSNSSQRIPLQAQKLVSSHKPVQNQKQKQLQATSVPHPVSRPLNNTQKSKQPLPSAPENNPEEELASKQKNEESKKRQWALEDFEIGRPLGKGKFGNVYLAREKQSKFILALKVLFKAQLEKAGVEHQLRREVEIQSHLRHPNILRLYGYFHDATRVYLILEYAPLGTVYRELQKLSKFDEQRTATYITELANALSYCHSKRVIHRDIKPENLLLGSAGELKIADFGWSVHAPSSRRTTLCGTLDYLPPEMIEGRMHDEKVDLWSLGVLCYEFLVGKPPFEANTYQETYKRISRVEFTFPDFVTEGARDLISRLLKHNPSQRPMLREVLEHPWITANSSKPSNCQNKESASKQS
Outline: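 Active enzyme incubated 1 h with biotinylated STK substrate-2, 1 mM ATP and inhibitor in Hepes pH 7.4 with MgCl2, orthovanadate and Triton X-100. EDTA stop; phosphopeptide detected by Eu-cryptate anti-phospho-STK/SA-XL665 TR-FRET (665/615 nm ratio); IC50 by exponential fit.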

T1 sequence (Q96GD4 whole entry, the tested form may be a part): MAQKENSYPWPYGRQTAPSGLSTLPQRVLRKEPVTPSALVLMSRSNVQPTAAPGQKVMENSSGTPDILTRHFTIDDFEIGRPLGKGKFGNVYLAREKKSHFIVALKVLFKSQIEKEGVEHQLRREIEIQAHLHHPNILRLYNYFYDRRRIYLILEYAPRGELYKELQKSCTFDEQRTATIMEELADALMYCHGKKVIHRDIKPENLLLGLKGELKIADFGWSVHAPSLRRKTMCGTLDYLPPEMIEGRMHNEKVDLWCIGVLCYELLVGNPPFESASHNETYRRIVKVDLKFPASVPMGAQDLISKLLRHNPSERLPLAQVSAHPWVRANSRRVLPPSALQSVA
T1 sequence (Q9NQS7 826-918 partner limits assumed): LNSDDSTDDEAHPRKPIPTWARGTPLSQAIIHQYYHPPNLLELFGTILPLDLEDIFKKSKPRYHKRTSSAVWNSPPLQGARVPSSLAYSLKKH

| Compound | pKi [1] | pKi [2] |
| --- | --- | --- |
| CN1CCN(CCn2cc(Nc3ncc(Br)c(N[C@H]4[C@@H](C(N)=O)[C@@H]5C=C[C@H]4C5)n3)cn2)CC1 [Example 94, (1S,2S,3R,4R)-3-{[5-bromo-2-({1-[2-(4-methylpiperazin-1-yl)ethyl]-1H-pyrazol-4-yl}amino)pyrimidin-4-yl]amino}bicyclo[2.2.1]hept-5-ene-2-carboxamide] | > 7.00 | > 7.00 |
| COCCn1cc(Nc2ncc(Cl)c(N[C@H]3[C@@H](C(N)=O)[C@@H]4C=C[C@H]3C4)n2)cn1 [Example 96, (1S,2S,3R,4R)-3-[(5-chloro-2-{[1-(2-methoxyethyl)-1H-pyrazol-4-yl]amino}pyrimidin-4-yl)amino]bicyclo[2.2.1]hept-5-ene-2-carboxamide] | > 7.00 | > 7.00 |
| NC(=O)[C@@H]1[C@H](Nc2nc(Nc3cnn(C4CCNCC4)c3)ncc2Br)[C@H]2C=C[C@@H]1C2 [Example 95, (1S,2S,3R,4R)-3-[(5-bromo-2-{[1-(piperidin-4-yl)-1H-pyrazol-4-yl]amino}pyrimidin-4-yl)amino]bicyclo[2.2.1]hept-5-ene-2-carboxamide] | > 7.00 | > 7.00 |
